The values below are quoted from earlier work in patent US9308169B2, “Microspheres for active embolization” (Biosphere Medical, Inc., priority 2000, dated 2016).

The conditions of the data set: effect of the spacer / dangling cationic head of the transfection agent; general statement, no test described.

As for `CCCCCCCC/C=C\CCCCCCCC(=O)OC[C@H](COC(=O)CCC(=O)OCC[N+](C)(C)C)OC(=O)CCCCCCC/C=C\CCCCCCCC` [DOSC], the transfection efficiency entry is on record as “best transfection efficiency”.
With `CCCCCCCC/C=C\CCCCCCCC(=O)OC[C@H](COC(=O)CCC[N+](C)(C)C)OC(=O)CCCCCCC/C=C\CCCCCCCC` [DOTB], the transfection efficiency entry was “best transfection efficiency”.
